Measured values reported in patent publication US6737383B1, “Herbicidal oxadiazolidines” (priority 1999, dated 2004).

What was measured:
bedstraw = assay: Test B pre/postemergence bedstraw; format: in vivo, Galium aparine
Method in brief: (§1)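 Herbicidal effect was estimated by eye on a ten-point control scale after plants spent twelve to sixteen days in a greenhouse following soil or foliar treatment. Foliar sprays targeted plants at one to four leaves; all doses were formulated in a non-phytotoxic solvent with surfactant.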

velvetleaf = assay: Test B pre/postemergence velvetleaf; format: in vivo, Abutilon theophrasti
Method in brief: as §1

purple nutsedge = assay: Test B pre/postemergence purple nutsedge; format: in vivo, Cyperus rotundus
Method in brief: as §1

rice = assay: Test B flood test rice; format: in vivo, Oryza sativa
Method in brief: (§2)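 Each value is a visual injury score relative to controls, with 10 meaning complete control and 0 no effect. Evaluation took place twelve to sixteen days after the 2-leaf-stage plants were treated and kept in the greenhouse.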

corn = assay: Test B pre/postemergence corn; format: in vivo, Zea mays
Method in brief: as §1

pigweed = assay: Test B pre/postemergence pigweed; format: in vivo, Amaranthus retroflexus; conditions: for Redroot pigweed plant response rating: Postemergence; for Plant response rating, Redroot pigweed: Preemergence
Method in brief: as §1

blackgrass = assay: Test B pre/postemergence blackgrass; format: in vivo, Alopecurus myosuroides
Method in brief: as §1

giant foxtail = assay: Test B pre/postemergence giant foxtail; format: in vivo, Setaria faberii
Method in brief: as §1

morningglory = assay: Test B pre/postemergence morningglory; format: in vivo, Ipomoea hederacea
Method in brief: as §1

crabgrass = assay: Test B pre/postemergence crabgrass; format: in vivo, Digitaria sanguinalis
Method in brief: as §1

soybean = assay: Test B pre/postemergence soybean; format: in vivo, Glycine max
Method in brief: as §1

wild oat = assay: Test B pre/postemergence wild oat; format: in vivo, Avena fatua
Method in brief: as §1

surinam grass = assay: Test B pre/postemergence surinam grass; format: in vivo, Brachiaria decumbens
Method in brief: as §1

rape = assay: Test B pre/postemergence rape; format: in vivo, Brassica napus
Method in brief: as §1

wheat = assay: Test B pre/postemergence wheat; format: in vivo, Triticum aestivum
Method in brief: as §1

duck salad = assay: Test B flood test duck salad; format: in vivo, Heteranthera limosa
Method in brief: as §2

[1] = Postemergence, Rate 62 g/ha, scale 0 to 10, 0 is no effect, 10 is complete control
[2] = Postemergence, Rate 250 g/ha, scale 0 to 10, 0 no effect, 10 complete control
[3] = Preemergence, Rate 62 g/ha, scale 0 to 10, 0 is no effect, 10 is complete control
[4] = Preemergence, Rate 125 g/ha, scale 0 to 10 (0 no effect, 10 complete control)
[5] = Preemergence, Rate 250 g/ha, scale of 0 to 10 where 0 is no effect and 10 is complete control
[6] = Preemergence, Rate 500 g/ha, scale 0 (no effect) to 10 (complete control)
[7] = Rate 125 g/ha, Postemergence, scale 0 to 10, 0 no effect, 10 complete control
[8] = Rate 500 g/ha, Postemergence, 0 to 10 scale (0 no effect, 10 complete control)
[9] = Rate 125 g/ha, Postemergence section (flood test species), scale 0 to 10, 0 no effect, 10 complete control
[10] = Rate 500 g/ha, Postemergence section of Table B, 0 to 10 scale (0 no effect, 10 complete control)
[11] = flood test, listed under Postemergence, Rate 250 g/ha, scale 0 to 10, 0 no effect, 10 complete control
[12] = Rate 62 g/ha, scale 0 to 10, 0 is no effect, 10 is complete control

CC(C)N(C(=O)n1oc(=O)n(-c2c(Cl)cccc2Cl)c1=O)c1ccc(F)cc1 [Compound 19]
Bedstraw plant response rating (bedstraw; [1]): 2 | Bedstraw plant response rating (bedstraw; [2]): 7 | Plant response rating, Bedstraw (bedstraw; [3]): 0 | Plant response rating, Bedstraw (bedstraw; [4]): 0 | Plant response rating, Bedstraw (bedstraw; [5]): 0 | Bedstraw plant response rating (bedstraw; [6]): 0 | Bedstraw plant response rating (bedstraw; [7]): 6 | Bedstraw plant response rating (bedstraw; [8]): 8 | Velvetleaf plant response rating (velvetleaf; [1]): 0 | Velvetleaf plant response rating (velvetleaf; [2]): 0 | Plant response rating, Velvetleaf (velvetleaf; [3]): 0 | Plant response rating, Velvetleaf (velvetleaf; [4]): 0 | Plant response rating, Velvetleaf (velvetleaf; [5]): 0 | Velvetleaf plant response rating (velvetleaf; [6]): 0 | Velvetleaf plant response rating (velvetleaf; [7]): 0 | Nutsedge plant response rating (purple nutsedge; [1]): 0 | Nutsedge plant response rating (purple nutsedge; [2]): 0 | Plant response rating, Nutsedge (purple nutsedge; [3]): 0 | Plant response rating, Nutsedge (purple nutsedge; [4]): 0 | Plant response rating, Nutsedge (purple nutsedge; [5]): 0 | Nutsedge plant response rating (purple nutsedge; [6]): 0 | Nutsedge plant response rating (purple nutsedge; [7]): 0 | Nutsedge plant response rating (purple nutsedge; [8]): 0 | Rice plant response rating (rice; [1]): 0 | Rice plant response rating (rice; [9]): 0 | Rice plant response rating (rice; [10]): 0 | Rice plant response rating (rice; [11]): 0 | Corn plant response rating (corn; [1]): 0 | Corn plant response rating (corn; [2]): 0 | Plant response rating, Corn (corn; [3]): 0 | Plant response rating, Corn (corn; [4]): 0 | Plant response rating, Corn (corn; [5]): 0 | Corn plant response rating (corn; [6]): 0 | Corn plant response rating (corn; [7]): 0 | Corn plant response rating (corn; [8]): 0 | Redroot pigweed plant response rating (pigweed; [12]): 0 | Redroot pigweed plant response rating (pigweed; Rate 250 g/ha, scale 0 to 10, 0 no effect, 10 complete control): 2 | Plant response rating, Redroot pigweed (pigweed; [12]): 0 | Plant response rating, Redroot pigweed (pigweed; Rate 125 g/ha, scale 0 to 10 (0 no effect, 10 complete control)): 0 | Plant response rating, Redroot pigweed (pigweed; Rate 250 g/ha, scale of 0 to 10 where 0 is no effect and 10 is complete control): 2 | Redroot pigweed plant response rating (pigweed; Rate 125 g/ha, scale 0 to 10, 0 no effect, 10 complete control): 0 | Redroot pigweed plant response rating (pigweed; Rate 500 g/ha, 0 to 10 scale (0 no effect, 10 complete control)): 5 | Blackgrass plant response rating (blackgrass; [1]): 0 | Blackgrass plant response rating (blackgrass; [2]): 0 | Plant response rating, Blackgrass (blackgrass; [3]): 0 | Plant response rating, Blackgrass (blackgrass; [4]): 2 | Plant response rating, Blackgrass (blackgrass; [5]): 2 | Blackgrass plant response rating (blackgrass; [6]): 3 | Blackgrass plant response rating (blackgrass; [7]): 0 | Blackgrass plant response rating (blackgrass; [8]): 2 | Giant foxtail plant response rating (giant foxtail; [1]): 0 | Giant foxtail plant response rating (giant foxtail; [2]): 0 | Plant response rating, Giant foxtail (giant foxtail; [3]): 0 | Plant response rating, Giant foxtail (giant foxtail; [4]): 2 | Plant response rating, Giant foxtail (giant foxtail; [5]): 4 | Giant foxtail plant response rating (giant foxtail; [6]): 5 | Giant foxtail plant response rating (giant foxtail; [7]): 0 | Giant foxtail plant response rating (giant foxtail; [8]): 1 | Morningglory plant response rating (morningglory; [1]): 0 | Morningglory plant response rating (morningglory; [2]): 0 | Plant response rating, Morningglory (morningglory; [3]): 0 | Plant response rating, Morningglory (morningglory; [4]): 0 | Plant response rating, Morningglory (morningglory; [5]): 0 | Morningglory plant response rating (morningglory; [6]): 0 | Morningglory plant response rating (morningglory; [7]): 0 | Morningglory plant response rating (morningglory; [8]): 2 | Crabgrass plant response rating (crabgrass; [1]): 0 | Crabgrass plant response rating (crabgrass; [2]): 0 | Plant response rating, Crabgrass (crabgrass; [3]): 3 | Plant response rating, Crabgrass (crabgrass; [4]): 5 | Plant response rating, Crabgrass (crabgrass; [5]): 7 | Crabgrass plant response rating (crabgrass; [6]): 10 | Crabgrass plant response rating (crabgrass; [7]): 0 | Soybean plant response rating (soybean; [1]): 2 | Soybean plant response rating (soybean; [2]): 3 | Plant response rating, Soybean (soybean; [3]): 0 | Plant response rating, Soybean (soybean; [4]): 0 | Plant response rating, Soybean (soybean; [5]): 0 | Soybean plant response rating (soybean; [6]): 0 | Soybean plant response rating (soybean; [7]): 3 | Wild oats plant response rating (wild oat; [1]): 0 | Wild oats plant response rating (wild oat; [2]): 0 | Plant response rating, Wild oats (wild oat; [4]): 0 | Plant response rating, Wild oats (wild oat; [5]): 0 | Wild oats plant response rating (wild oat; [6]): 0 | Wild oats plant response rating (wild oat; [7]): 0 | B. signalgrass plant response rating (surinam grass; [1]): 0 | B. signalgrass plant response rating (surinam grass; [2]): 0 | Plant response rating, B. signalgrass (surinam grass; [3]): 0 | Plant response rating, B. signalgrass (surinam grass; [4]): 2 | Plant response rating, B. signalgrass (surinam grass; [5]): 2 | B. signalgrass plant response rating (surinam grass; [6]): 2 | B. signalgrass plant response rating (surinam grass; [7]): 0 | B. signalgrass plant response rating (surinam grass; [8]): 0 | Rape plant response rating (rape; [1]): 0 | Rape plant response rating (rape; [2]): 0 | Plant response rating, Rape (rape; [3]): 0 | Plant response rating, Rape (rape; [4]): 0 | Plant response rating, Rape (rape; [5]): 0 | Rape plant response rating (rape; [6]): 3 | Rape plant response rating (rape; [7]): 0 | Rape plant response rating (rape; [8]): 0 | Wheat plant response rating (wheat; [1]): 0 | Wheat plant response rating (wheat; [2]): 0 | Plant response rating, Wheat (wheat; [3]): 0 | Plant response rating, Wheat (wheat; [4]): 0 | Plant response rating, Wheat (wheat; [5]): 0 | Wheat plant response rating (wheat; [6]): 0 | Wheat plant response rating (wheat; [7]): 0 | Ducksalad plant response rating (duck salad; [1]): 0 | Ducksalad plant response rating (duck salad; [9]): 0 | Ducksalad plant response rating (duck salad; [10]): 0 | Ducksalad plant response rating (duck salad; [11]): 0
